Experimental data published in patent US11752156B2, “Compositions and methods for treating hyperproliferative skin disorders” (Athenex HK Innovative Limited, priority 2018, dated 2023).
Values joined by “and” are separate entries in the source; they are usually repeats but may differ in a detail not shown here. Equal entries are not always repeated. Where two headings read alike, the source gives them in different places.

Key:
[1] = test system: human keratinocytes in culture (cell line CCD-1106 KERTr); assay: cell viability / cell growth of human keratinocytes in culture, KX01, calcipotriol and fixed-ratio combinations; format: cell-based; parameters: cell growth (cell viability): unit not given here
From the text: Typical data from studies of the effects of compound KX01 provided in combination with calcipotriol on growth of human keratinocytes in culture (cell line CCD-1106 KERTr) are shown in FIGS. 1 to 3 and Tables 1 to 6. FIG. 1 and Tables 1 and 2 show the degree of growth inhibition found in a typical study performed with KX01 and calcipotriol at a 1:5 ratio.

[2] = test system: squamous cell human carcinoma cell line (SCC A431); assay: MTT cell proliferation assay, 72 hours, dark or blue light, squamous cell carcinoma; format: cell-based; conditions: for inhibition at 0.005 µM / inhibition at 0.02 µM / inhibition at 0.08 µM / inhibition at 0.32 µM / inhibition at 1.28 µM: Homo sapiens, read-out: growth inhibition relative to untreated control
Protocol: The effects of combined treatment with KX01, a vitamin D derivative, and/or blue/UV light exposure were characterized using a cell proliferation assay. Cell proliferation was assessed by using an MTT assay. Cells were seeded in 96-well plate (3,000-5,000 cells per well) and treated with test compounds at varying concentrations (e.g. KX01: 5 to 80 nM; calcipotriol 5 to 1,280 nM) for 72 hours, either in the dark or exposed to blue light irradiation (for 2, 4, or 6 hours). To each well, 10 μl of 3-(4,5-dimethylthiazol-2-yl)-2,5-diphenyltetrazolium bromide (MTT) (RPI Corporation™) solution (5 mg/ml in PBS) was added and incubated at 37° C. for 3 hours. Next, 100 μl of 20% SDS was added to each well. After overnight incubation at 37° C., the absorbance in each well was measured at 570 nm in a microplate reader (Molecular Devices™). The cell growth curve and GI50s were calculate using GraphPad Prism™ 5 software. Similar studies were performed using a squamous cell carcinoma cell line (SCC A431). Tables 19 and 20 show the results of cell growth inhibition studies (expressed as a percentage relative to control cell growth) for treatment with either KX01 or calcipotriol in combination with exposure to blue light. […] The percentage of growth inhibition relative to untreated control is shown. Tables 21 to 24 show the effects of combined treatment with KX01, calcipotriol, and exposure to blue light at 0 hours, 2 hours, 4 hours, and 6 hours of light exposure (respectively) on human squamous cell carcinoma cells. Values are expressed as the percentage of growth inhibition relative to cells grown under control conditions (0 hours blue light, [KX01]=0, [calcipotriol]=0). The percentage of growth inhibition relative to an untreated control is shown. […] Results are shown below in Tables 31 and 32, which show results for KX01 and calcipotriol (respectively). Values are expressed as the percentage of growth inhibition relative to cells grown under control conditions (0 hours blue light, [KX01]=0, [calcipotriol]=0). […] Results are shown below in Tables 33 to Table 36, which show results from 0, 2, 4, and 6 hours of blue light exposure (respectively). Values are expressed as the percentage of growth inhibition relative to cells grown under control conditions (0 hours blue light, [KX01]=0, [calcipotriol]=0).

## C=C1/C(=C\C=C2/CCC[C@]3(C)[C@@H]([C@H](C)/C=C/[C@@H](O)C4CC4)CC[C@@H]23)C[C@@H](O)C[C@@H]1O [Calcipotriol, calcipotriol]
[1]
  GI50: 310 nM and 339 nM
[1]; Homo sapiens, CCD-1106
  GI50: 265 nM
[1]; Homo sapiens, CCD-1106, concentration 3 nM
  viability at 0.003 µM: 94%
[1]; Homo sapiens, CCD-1106, concentration 9 nM
  viability at 0.009 µM: 89.9%
[1]; Homo sapiens, CCD-1106, concentration 27 nM
  viability at 0.027 µM: 70.5%
[1]; Homo sapiens, CCD-1106, concentration 81 nM
  viability at 0.081 µM: 49.4%
[1]; Homo sapiens, CCD-1106, concentration 243 nM
  viability at 0.243 µM: 47.3%
[1]; Homo sapiens, CCD-1106, concentration 729 nM
  viability at 0.729 µM: 47%
[1]; Homo sapiens, CCD-1106, concentration 2187 nM
  viability at 2.187 µM: 44.8%
[1]; Homo sapiens, CCD-1106, concentration 6561 nM
  viability at 6.561 µM: 19.2%
[1]; concentration 3 nM, 0.003 µM
  cell growth (cell viability): 95.3 and 96.1
[1]; concentration 9 nM, 0.009 µM
  cell growth (cell viability): 88.8 and 89.7
[1]; concentration 27 nM, 0.027 µM
  cell growth (cell viability): 72.5 and 70.1
[1]; concentration 81 nM, 0.081 µM
  cell growth (cell viability): 53.2 and 52.8
[1]; concentration 243 nM, 0.243 µM
  cell growth (cell viability): 47.7 and 51.0
[1]; concentration 729 nM, 0.729 µM
  cell growth (cell viability): 47.1 and 48.7
[1]; concentration 2187 nM, 2.187 µM
  cell growth (cell viability): 46.7 and 48.3
[1]; concentration 6561 nM, 6.561 µM
  cell growth (cell viability): 25.2 and 26.5
[2]; A-431, 0 h, calcipotriol 5 nM, blue light 0 h
  inhibition at 0.005 µM: 19%
[2]; A-431, 0 h, calcipotriol 20 nM, blue light 0 h
  inhibition at 0.02 µM: 30%
[2]; A-431, 0 h, calcipotriol 80 nM, blue light 0 h
  inhibition at 0.08 µM: 40%
[2]; A-431, 0 h, calcipotriol 320 nM, blue light 0 h
  inhibition at 0.32 µM: 41%
[2]; A-431, 0 h, calcipotriol 1,280 nM, blue light 0 h
  inhibition at 1.28 µM: 36%
[2]; A-431, 2 h, calcipotriol 5 nM, blue light 2 h
  inhibition at 0.005 µM: 26%
[2]; A-431, 2 h, calcipotriol 20 nM, blue light 2 h
  inhibition at 0.02 µM: 36%
[2]; A-431, 2 h, calcipotriol 80 nM, blue light 2 h
  inhibition at 0.08 µM: 41%
[2]; A-431, 2 h, calcipotriol 320 nM, blue light 2 h
  inhibition at 0.32 µM: 35%
[2]; A-431, 2 h, calcipotriol 1,280 nM, blue light 2 h
  inhibition at 1.28 µM: 38%
[2]; A-431, 4 h, calcipotriol 5 nM, blue light 4 h
  inhibition at 0.005 µM: 49%
[2]; A-431, 4 h, calcipotriol 20 nM, blue light 4 h
  inhibition at 0.02 µM: 44%
[2]; A-431, 4 h, calcipotriol 80 nM, blue light 4 h
  inhibition at 0.08 µM: 47%
[2]; A-431, 4 h, calcipotriol 320 nM, blue light 4 h
  inhibition at 0.32 µM: 49%
[2]; A-431, 4 h, calcipotriol 1,280 nM, blue light 4 h
  inhibition at 1.28 µM: 43%
[2]; A-431, 6 h, calcipotriol 5 nM, blue light 6 h
  inhibition at 0.005 µM: 67%
[2]; A-431, 6 h, calcipotriol 20 nM, blue light 6 h
  inhibition at 0.02 µM: 69%
[2]; A-431, 6 h, calcipotriol 80 nM, blue light 6 h
  inhibition at 0.08 µM: 67%
[2]; A-431, 6 h, calcipotriol 320 nM, blue light 6 h
  inhibition at 0.32 µM: 67%
[2]; A-431, 6 h, calcipotriol 1,280 nM, blue light 6 h
  inhibition at 1.28 µM: 68%
[2]; calcipotriol 5 nM, blue light 0 h
  growth inhibition relative to untreated control: 14%
[2]; calcipotriol 5 nM, blue light 2 h
  growth inhibition relative to untreated control: 27%
[2]; calcipotriol 5 nM, blue light 4 h
  growth inhibition relative to untreated control: 50%
[2]; calcipotriol 5 nM, blue light 6 h
  growth inhibition relative to untreated control: 62%
[2]; calcipotriol 20 nM, blue light 2 h
  growth inhibition relative to untreated control: 39%
[2]; calcipotriol 20 nM, blue light 4 h
  growth inhibition relative to untreated control: 48%
[2]; calcipotriol 20 nM, blue light 6 h
  growth inhibition relative to untreated control: 63%
[2]; calcipotriol 80 nM, blue light 0 h
  growth inhibition relative to untreated control: 27%
[2]; calcipotriol 80 nM, blue light 4 h
  growth inhibition relative to untreated control: 50%
[2]; calcipotriol 80 nM, blue light 6 h
  growth inhibition relative to untreated control: 61%
[2]; calcipotriol 320 nM, blue light 0 h
  growth inhibition relative to untreated control: 31%
[2]; calcipotriol 320 nM, blue light 2 h
  growth inhibition relative to untreated control: 37%
[2]; calcipotriol 320 nM, blue light 4 h
  growth inhibition relative to untreated control: 51%
[2]; calcipotriol 320 nM, blue light 6 h
  growth inhibition relative to untreated control: 60%
[2]; calcipotriol 1,280 nM, blue light 0 h
  growth inhibition relative to untreated control: 28%
[2]; calcipotriol 1,280 nM, blue light 2 h
  growth inhibition relative to untreated control: 39%
[2]; calcipotriol 1,280 nM, blue light 4 h
  growth inhibition relative to untreated control: 48%
[2]; calcipotriol 1,280 nM, blue light 6 h
  growth inhibition relative to untreated control: 58% and 57%
